Assay results from article PMC4949533, “Optimization of Inhibitors of Mycobacterium tuberculosis Pantothenate Synthetase Based on Group Efficiency Analysis” (Chemmedchem, 2015).
Like-named read-outs stand apart in the source and are kept apart here.

What was measured:
[1] = target: T1, Mycobacterium tuberculosis pantothenate synthetase (Mycobacterium tuberculosis, UniProt P9WIL4); assay: isothermal titration calorimetry (ITC); type: binding; conditions: read-out: K D [μM]^[a]
T1 construct: gene panC
T1 sequence (P9WIL4 2-309 limits assumed): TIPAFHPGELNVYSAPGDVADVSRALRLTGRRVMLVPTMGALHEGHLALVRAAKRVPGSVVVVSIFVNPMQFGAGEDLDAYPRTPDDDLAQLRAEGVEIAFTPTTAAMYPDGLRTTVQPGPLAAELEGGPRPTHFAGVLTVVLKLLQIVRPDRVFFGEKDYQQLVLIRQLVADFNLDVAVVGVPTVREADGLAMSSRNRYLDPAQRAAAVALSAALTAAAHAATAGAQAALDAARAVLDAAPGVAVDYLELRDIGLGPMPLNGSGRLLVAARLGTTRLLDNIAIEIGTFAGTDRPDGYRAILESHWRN
Text: isothermal titration calorimetry (ITC) on Mycobacterium tuberculosis pantothenate synthetase

[2] = target: T1, Mycobacterium tuberculosis pantothenate synthetase; assay: enzyme inhibition assay; type: biochemical

| SMILES | Kd ([1]; active site, lead compound of the group's earlier work, cited from earlier work) | Kd [1] | IC50 [2] |
| --- | --- | --- | --- |
| COc1ccc2c(c1)cc(C(=O)NS(=O)(=O)c1ccc(C)cn1)n2CC(=O)O [compound 5, 5] | 1.5 µM |  |  |
| COc1ccc2c(c1)cc(C(=O)NS(=O)(=O)c1ccc(C)cc1)n2CC(=O)O [compound 10, 10] |  | 0.34 µM |  |
| COc1ccc2c(c1)cc(C(=O)NS(=O)(=O)c1ccc(C(F)(F)F)cc1)n2CC(=O)O [compound 11, 11] |  | 0.2 µM | 5.7 µM |
| COc1ccc2c(c1)cc(C(=O)NS(=O)(=O)c1ccc(C(C)(C)C)cc1)n2CC(=O)O [compound 12, 12] |  | 0.46 µM |  |
| COc1ccc2c(c1)cc(C(=O)NS(=O)(=O)c1ccc3ccccc3c1)n2CC(=O)O [compound 13, 13] |  | 0.61 µM |  |
| COc1ccc2c(c1)cc(C(=O)NS(=O)(=O)c1ccc(C(F)(F)F)cc1[N+](=O)[O-])n2CC(=O)O [compound 14, 14] |  | 0.8 µM |  |
| COc1ccc2c(c1)cc(C(=O)NS(=O)(=O)N1CCOCC1)n2CC(=O)O [compound 15, 15] |  | 3.5 µM |  |
| COc1ccc2c(c1)cc(C(=O)NS(=O)(=O)N1CCN(C(C)=O)CC1)n2CC(=O)O [compound 16, 16] |  | 17 µM |  |
| COc1ccc2c(c1)cc(C(=O)NS(=O)(=O)c1ccc(NC(C)=O)cc1)n2CC(=O)O [compound 18, 18] |  | 6 µM |  |
| COc1ccc(S(=O)(=O)NC(=O)c2cc3cc(OC)ccc3n2CC(=O)O)cc1 [compound 19, 19] |  | 2 µM |  |
| COc1ccc2c(c1)cc(C(=O)NS(=O)(=O)Cc1ccc(C(F)(F)F)cc1)n2CC(=O)O [compound 20, 20] |  |  | 0.253 µM |
